Source: the OligoGym collection
Where “and” joins values, the source holds several entries; their conditions need not be identical. Equal entries are not always repeated. After the bases stand the sugars from the 5' end (letter, count) and the backbone: PS all phosphorothioate, else s phosphorothioate and o phosphodiester by linkage. Methylation of C is not given here. e = 2'-O-(2-methoxyethyl) (MOE); k = constrained ethyl (cEt); d = 2'-deoxy (DNA)

Target: APOL1
Settings: ASO

Sequence: TTATGAAATTATTGGT (sugars kkddddekekeddddd, PS)
- target mRNA inhibition (A431, 2 µM): 74%

Sequence: ATTCTCATGGTACAGG (sugars kddddkekekeddddd, PS)
- target mRNA inhibition (A431, 2 µM): 51%

Sequence: TGAAGATTGGCTCTGG (sugars k2 d4 e3 k2 d5, PS)
- target mRNA inhibition (A431, 2 µM): 82%

Sequence: TTGGTTCAAAAGCAGC (sugars k4 d9 k3, PS)
- target mRNA inhibition (A431, 0.0625 µM): 72%
- target mRNA inhibition (A431, 0.25 µM): 87%
- target mRNA inhibition (A431, 1 µM): 92%

Sequence: TTATATTTGATCCTCA (sugars k2 d4 e4 k2 d4, PS)
- target mRNA inhibition (A431, 0.0156 µM): 0%
- target mRNA inhibition (A431, 0.0625 µM): 30%
- target mRNA inhibition (A431, 0.25 µM): 61%
- target mRNA inhibition (A431, 1 µM): 87%
- target mRNA inhibition (A431, 2 µM): 91%

Sequence: ATTCTATTAGAGGGCT (sugars kekddddeekkddddd, PS)
- target mRNA inhibition (A431, 2 µM): 77%

Sequence: GCTAATTTTCTGACTG (sugars kkdddddkekeddddd, PS)
- target mRNA inhibition (A431, 0.0156 µM): 11%
- target mRNA inhibition (A431, 0.0625 µM): 47%
- target mRNA inhibition (A431, 0.25 µM): 82%
- target mRNA inhibition (A431, 1 µM): 94%
- target mRNA inhibition (A431, 2 µM): 99%

Sequence: CATTCAGAATTTCCAC (sugars kkddddkekekddddd, PS)
- target mRNA inhibition (A431, 2 µM): 76%

Sequence: CACATCATTGGGTTAT (sugars k4 d9 k3, PS)
- target mRNA inhibition (A431, 0.0625 µM): 65%
- target mRNA inhibition (A431, 0.25 µM): 84%
- target mRNA inhibition (A431, 1 µM): 90%

Sequence: ACGCAATGCTGACTTG (sugars kkddddkekekddddd, PS)
- target mRNA inhibition (A431, 2 µM): 79%

Sequence: GTTATATTTGATCCTC (sugars kddddkekekeddddd, PS)
- target mRNA inhibition (A431, 2 µM): 60%

Sequence: TTTTGTTGCACCCTTG (sugars k4 d9 k3, PS)
- target mRNA inhibition (A431, 0.0625 µM): 76%
- target mRNA inhibition (A431, 0.25 µM): 87%
- target mRNA inhibition (A431, 1 µM): 92%

Sequence: TGAGTATTGTTTTTGT (sugars k2 d4 e3 k2 d5, PS)
- target mRNA inhibition (A431, 2 µM): 87%

Sequence: ATCAGATGGGTACTTC (sugars kkddddekekeddddd, PS)
- target mRNA inhibition (A431, 2 µM): 73%

Sequence: GGTTCAAAAGCAGCAT (sugars k4 d9 k3, PS)
- target mRNA inhibition (A431, 0.0625 µM): 78%
- target mRNA inhibition (A431, 0.25 µM): 91%
- target mRNA inhibition (A431, 1 µM): 95%

Sequence: CACTTTATACCAGTGT (sugars k2 d4 e3 k2 d5, PS)
- target mRNA inhibition (A431, 2 µM): 0%

Sequence: CACATCATTGGGTTAT (sugars kkddddekekeddddd, PS)
- target mRNA inhibition (A431, 2 µM): 81%

Sequence: AGTTTTGTAAGTGCAA (sugars kkkddddkekekdddd, PS)
- target mRNA inhibition (A431, 2 µM): 77%

Sequence: TCAGATGGGTACTTCT (sugars k3 d4 k3 e1 d5, PS)
- target mRNA inhibition (A431, 2 µM): 82%

Sequence: AGTATTGCCAGCTAAG (sugars kkkddddkekekdddd, PS)
- target mRNA inhibition (A431, 2 µM): 66%

Sequence: GGTTATGAAATTATTG (sugars k2 d4 e3 k2 d5, PS)
- target mRNA inhibition (A431, 2 µM): 61%

Sequence: TGTATTTCTTGATGTG (sugars k3 d4 k3 e1 d5, PS)
- target mRNA inhibition (A431, 2 µM): 87%

Sequence: TTCTCATGGTACAGGA (sugars k2 d4 e3 k2 d5, PS)
- target mRNA inhibition (A431, 2 µM): 86%

Sequence: CTATTAGAGGGCTAGT (sugars kkddddkekekkdddd, PS)
- target mRNA inhibition (A431, 2 µM): 25%

Sequence: GGCATTCAGAATTTCC (sugars kkkddddkekekdddd, PS)
- target mRNA inhibition (A431, 2 µM): 20%

Sequence: GTTCAAAAGCAGCATT (sugars kkkddddkdkdkdddd, PS)
- target mRNA inhibition (A431, 2 µM): 23%

Sequence: TCAATTTGTCAAGGCT (sugars k4 d9 k3, PS)
- target mRNA inhibition (A431, 0.0625 µM): 46% and 59%
- target mRNA inhibition (A431, 0.25 µM): 78% and 83%
- target mRNA inhibition (A431, 1 µM): 90% and 91%

Sequence: CACCATAGCACGAAGC (sugars k4 d9 k3, PS)
- target mRNA inhibition (A431, 0.0625 µM): 23%
- target mRNA inhibition (A431, 0.25 µM): 53%
- target mRNA inhibition (A431, 1 µM): 72%

Sequence: AAGATTGGCTCTGGCT (sugars k3 d4 k3 e1 d5, PS)
- target mRNA inhibition (A431, 2 µM): 35%

Sequence: TGGGAATTATGGAATT (sugars kkkddddkekekdddd, PS)
- target mRNA inhibition (A431, 2 µM): 56%

Sequence: ACACATCATTGGGTTA (sugars kkkddddkekekdddd, PS)
- target mRNA inhibition (A431, 2 µM): 32%

Sequence: CTAATTTTCTGACTGT (sugars k2 d4 e3 k2 d5, PS)
- target mRNA inhibition (A431, 2 µM): 83%

Sequence: GAATTATGGAATTGCA (sugars kkddddkdkdkddddd, PS)
- target mRNA inhibition (A431, 2 µM): 82%

Sequence: AGTATTGTTTTTGTGG (sugars kkddddkekekkdddd, PS)
- target mRNA inhibition (A431, 2 µM): 66%

Sequence: TTCTATTAGAGGGCTA (sugars kekddddeekkddddd, PS)
- target mRNA inhibition (A431, 2 µM): 94%

Sequence: GGCATTCAGAATTTCC (sugars kkddddkekekddddd, PS)
- target mRNA inhibition (A431, 2 µM): 46%

Sequence: GCTAAGTTCCGGTCTC (sugars k4 d9 k3, PS)
- target mRNA inhibition (A431, 0.0625 µM): 50%
- target mRNA inhibition (A431, 0.25 µM): 74%
- target mRNA inhibition (A431, 1 µM): 85%

Sequence: GCTTTAAACTCAGGTG (sugars k2 d4 e3 k2 d5, PS)
- target mRNA inhibition (A431, 2 µM): 91%

Sequence: GTAAGTGCAACCAATC (sugars k4 d9 k3, PS)
- target mRNA inhibition (A431, 0.0625 µM): 75%
- target mRNA inhibition (A431, 0.25 µM): 93%
- target mRNA inhibition (A431, 1 µM): 99%

Sequence: AATTCTATTAGAGGGC (sugars k3 d4 k3 e1 d5, PS)
- target mRNA inhibition (A431, 2 µM): 70%

Sequence: CTTATGCTTACTCCAC (sugars k4 d9 k3, PS)
- target mRNA inhibition (A431, 0.0625 µM): 64%
- target mRNA inhibition (A431, 0.25 µM): 75%
- target mRNA inhibition (A431, 1 µM): 90%

Sequence: CAGTTTTGTAAGTGCA (sugars kkdddddkekeddddd, PS)
- target mRNA inhibition (A431, 0.0156 µM): 25%
- target mRNA inhibition (A431, 0.0625 µM): 53%
- target mRNA inhibition (A431, 0.25 µM): 84%
- target mRNA inhibition (A431, 1 µM): 89%
- target mRNA inhibition (A431, 2 µM): 94%

Sequence: CCGTCAATATATTCTT (sugars kkkddddkekeddddd, PS)
- target mRNA inhibition (A431, 2 µM): 97%
